Measurements published in the supplement of paper PMC10307832.

Legend:
Assay in all cases: relative viability (nuclei count vs DMSO), 5 days (fraction); higher = more cells survive
[1] = compound: CC1=C(C(=NN1)C)CC2=C(C3=C(S2)N(C(=O)N(C3=O)C)CC(C)C)C(=O)N4C[C@@H](CO4)O + CS(=O)(=O)CCNCc1ccc(-c2ccc3ncnc(Nc4ccc(OCc5cccc(F)c5)c(Cl)c4)c3c2)o1 [Lapatinib] (partner 2 µM)
Method in brief: (§1)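 Lung cancer cell lines in 1536-well plates got either a single drug or a fixed anchor-drug dose together with five library-drug doses (not always all listed) in √10 steps, by pin tool, on the day after seeding. Nuclei were counted after 5 days, and relative viability is the treated-to-vehicle ratio of nuclei counts. Values are medians of duplicate plates.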

[2] = compound: CC1=C(C(=NN1)C)CC2=C(C3=C(S2)N(C(=O)N(C3=O)C)CC(C)C)C(=O)N4C[C@@H](CO4)O + CC(C)C[C@H](NC(=O)[C@H](Cc1ccccc1)NC(=O)c1cnccn1)B(O)O [Bortezomib] (partner 0.002 µM)
Method in brief: as §1

[3] = compound: CC1=C(C(=NN1)C)CC2=C(C3=C(S2)N(C(=O)N(C3=O)C)CC(C)C)C(=O)N4C[C@@H](CO4)O + Cc1cc(Nc2cc(N3CCN(C)CC3)nc(Sc3ccc(NC(=O)C4CC4)cc3)n2)n[nH]1 [Tozasertib] (partner 0.1 µM)
Method in brief: as §1

[4] = compound: CC1=C(C(=NN1)C)CC2=C(C3=C(S2)N(C(=O)N(C3=O)C)CC(C)C)C(=O)N4C[C@@H](CO4)O + O=C(c1cc(Cc2n[nH]c(=O)c3ccccc23)ccc1F)N1CCN(C(=O)C2CC2)CC1 [Olaparib] (partner 8 µM)
Method in brief: as §1

Row | Cell Line | relative viability ([1]; first compound 0.0025 µM) | relative viability ([1]; first compound 0.007906 µM) | relative viability ([1]; first compound 0.025 µM) | relative viability ([1]; first compound 0.07906 µM) | relative viability ([1]; first compound 0.25 µM) | relative viability ([2]; first compound 0.0025 µM) | relative viability ([2]; first compound 0.007906 µM) | relative viability ([2]; first compound 0.025 µM) | relative viability ([2]; first compound 0.07906 µM) | relative viability ([2]; first compound 0.25 µM) | relative viability ([3]; first compound 0.0025 µM) | relative viability ([3]; first compound 0.007906 µM) | relative viability ([3]; first compound 0.025 µM) | relative viability ([3]; first compound 0.07906 µM) | relative viability ([3]; first compound 0.25 µM) | relative viability ([4]; first compound 0.0025 µM) | relative viability ([4]; first compound 0.007906 µM) | relative viability ([4]; first compound 0.025 µM) | relative viability ([4]; first compound 0.07906 µM) | relative viability ([4]; first compound 0.25 µM)
1 | RERF-LC-KJ | 0.899 | 0.928 | 0.86 | 0.885 | 0.941 | 1.01 | 1.23 | 1.22 | 1.06 | 1.21 | 0.461 | 0.529 | 0.469 | 0.485 | 0.492 | 0.958 | 0.832 | 1.04 | 0.926 | 0.883
2 | NCI-H1650 | 0.954 | 1.12 | 0.875 | 0.881 | 0.926 | 0.218 | 0.203 | 0.234 | 0.17 | 0.189 | 0.482 | 0.406 | 0.386 | 0.503 | 0.446 | 0.826 | 0.823 | 0.759 | 0.79 | 0.797
3 | BEN | 0.669 | 0.672 | 0.629 | 0.526 | 0.741 | 0.772 | 0.74 | 0.532 | 0.675 | 0.665 | 0.495 | 0.563 | 0.586 | 0.457 | 0.52 | 0.868 | 0.709 | 0.684 | 0.806 | 0.712
4 | NCI-H2170 | 0.282 | 0.279 | 0.276 | 0.273 | 0.306 | – | – | – | – | – | 0.67 | 0.734 | 0.736 | 0.599 | 0.8 | 0.582 | 0.636 | 0.676 | 0.597 | 0.666
5 | NCI-H1299 | 0.953 | 0.992 | 0.93 | 0.935 | 0.986 | 1.03 | 0.946 | 0.975 | 1.01 | 1.01 | – | – | – | – | – | 0.986 | 0.991 | 0.975 | 1.01 | 0.988
6 | EBC-1 | 0.201 | 0.204 | 0.217 | 0.203 | 0.204 | 0.602 | 0.553 | 0.588 | 0.639 | 0.648 | – | – | – | – | – | 0.738 | 0.705 | 0.718 | 0.836 | 0.748
7 | NCI-H2342 | – | – | – | – | – | – | – | – | – | – | 0.599 | 0.421 | 0.481 | 0.558 | 0.552 | 0.463 | 0.473 | 0.374 | 0.425 | 0.403
8 | NCI-H1792 | 0.963 | 0.931 | 0.834 | 0.746 | 0.824 | 0.94 | 1.01 | 0.861 | 0.878 | 0.786 | – | – | – | – | – | 0.542 | 0.384 | 0.356 | 0.383 | 0.246
9 | ChaGo-K-1 | – | – | – | – | – | 0.906 | 0.859 | – | 1.11 | 1.35 | 0.232 | 0.214 | 0.235 | 0.206 | 0.228 | 0.466 | 0.42 | 0.414 | 0.404 | 0.435
10 | LK-2 | 0.987 | 0.933 | 0.787 | 0.903 | 0.851 | – | – | – | – | – | 0.19 | 0.224 | 0.175 | 0.198 | 0.182 | 0.743 | 0.608 | 0.504 | 0.556 | 0.6
11 | NCI-H1944 | 0.877 | 0.94 | 0.951 | 0.822 | 0.92 | – | – | – | – | – | 0.263 | 0.269 | 0.246 | 0.25 | 0.253 | 0.455 | 0.427 | 0.423 | 0.373 | 0.423
12 | NCI-H1793 | 0.514 | 0.649 | 0.549 | 0.431 | 0.426 | – | – | – | – | – | 0.453 | 0.28 | 0.327 | 0.271 | 0.24 | 0.896 | 0.975 | 0.829 | 0.768 | 0.719
13 | A549 | 1.08 | 1.07 | 1.04 | 0.976 | 1.08 | – | – | – | – | – | – | – | – | – | – | 0.322 | 0.391 | 0.355 | 0.358 | 0.4
14 | NCI-H358 | 0.58 | 0.425 | 0.478 | 0.514 | 0.434 | – | – | – | – | – | 0.12 | 0.0943 | 0.0965 | 0.11 | 0.112 | 0.596 | 0.557 | 0.625 | 0.605 | 0.684
15 | NCI-H1563 | 0.944 | 1.01 | 0.999 | 1.04 | 0.831 | 0.943 | 0.938 | 0.938 | 0.811 | 0.818 | – | – | – | – | – | – | – | – | – | –
16 | NCI-H1395 | 0.941 | 0.948 | 0.776 | 0.839 | 0.949 | – | – | – | – | – | 0.757 | 0.681 | 0.581 | 0.592 | 0.599 | 0.552 | 0.408 | 0.38 | 0.342 | 0.403
17 | SW 900 | – | – | – | – | – | – | – | – | – | – | 0.57 | 0.558 | 0.536 | 0.524 | 0.591 | 0.805 | 1.09 | 0.846 | 1 | 0.893
18 | IA-LM | 1.04 | 0.863 | 0.924 | 0.816 | 1.05 | 0.923 | 0.652 | 0.815 | 1 | 0.883 | – | – | – | – | – | 0.907 | 1.03 | 0.807 | 0.757 | 0.865
19 | NCI-H1703 | 1.14 | 1.37 | 1.02 | 1.14 | 1.08 | 0.265 | 0.223 | 0.221 | 0.3 | 0.256 | – | – | – | – | – | 0.467 | 0.348 | 0.422 | 0.41 | 0.447
20 | NCI-H441 | – | – | – | – | – | 0.822 | 0.34 | 0.626 | 0.636 | 0.707 | 0.657 | 0.647 | 0.575 | 0.664 | 0.623 | 0.648 | 0.529 | 0.521 | 0.478 | 0.593
21 | LCLC-103H | – | – | – | – | – | 1.11 | 1.08 | 1.15 | 1.04 | 1.05 | 0.544 | 0.564 | 0.505 | 0.551 | 0.543 | 0.797 | 0.735 | 0.762 | 0.753 | 0.773
22 | NCI-H1648 | – | – | – | – | – | – | – | – | – | – | 0.462 | 0.542 | 0.754 | 0.37 | 0.458 | 0.878 | 0.724 | 0.63 | 0.782 | 0.887
